Publication PMC11157491, “Novel Alaninamide Derivatives with Drug-like Potential for Development as Antiseizure and Antinociceptive Therapies—In Vitro and In Vivo Characterization” (ACS Chemical Neuroscience, 2024)

Tests used:
mice = experiment: Capsaicin-induced pain; format: in vivo; conditions: Mus musculus, ip, 30 min before capsaicin
Experimental: The experimental groups consisted of 10 adult male Albino Swiss mice (CD-1, 18–25 g). Each animal was tested only once. Immediately after the assay, the animals were sacrificed by cervical dislocation. Behavioral measurements were observed by trained observers. The in vivo antinociceptive assays were in accordance with Polish regulations and the European Union Directive of 22 Sept 2010 (2010/63/EU). All procedures were carried out according to the rules of the International Council on Laboratory Animal Science (ICLAS) and were approved by the Local Ethics Committee in Cracow, Poland (104/2015, 279/2019, and 614/2022). The tested substances were suspended in a 1% aqueous solution of Tween 80 and were injected i.p. 30 min prior to the test. […] The in vivo procedure for the model of capsaicin-induced nociception was previously reported;[67] the animals were pretreated with vehicle (10 mL/kg, negative control), and the dose–response of investigated compounds was evaluated at 12.5, 25, and 50 mg/kg.
Data are presented as means ± standard error of the mean (SEM). […] Statistically significant differences between groups were calculated using one-way analysis of variance (ANOVA) and the post hoc Dunnett’s multiple comparison test or two-way analysis of variance (ANOVA). […]

mature BDNF (mBDNF) = experiment: mBDNF and proNGF expression in hippocampus and cortex of PTZ-kindled mice (western blot); format: in vivo; conditions: PTZ-kindled animals, prolonged treatment
Experimental: In addition, we determined the expression of the nerve growth factor (NGF), which can also be implicated in kindling progression, by enhancing mossy fiber sprouting.[40] However, no changes in the NGF protein expression in the hippocampus and cortex of kindled animals were found (Figure 5C,D).
The expression of mBDNF and proNGF in the mouse hippocampus and cortex was evaluated by the western blot technique. Half of mouse brain structures, cortex and hippocampus, were weighted and homogenized at the ratio of 9 μL/mg in 2% sodium dodecyl sulfate (SDS) supplemented with a cocktail of protease (Thermo Scientific) and phosphatese inhibitors (Sigma-Aldrich) using a bead homogenizer (Bead Ruptor Elite, Omni International). Then, the samples were denatured at 95 °C for 10 min and centrifuged at 10,000g for 10 min at 4 °C. The total protein concentration in the obtained supernatants was determined using a PierceTM BCA Protein Assay Kit (Thermo Scientific, Waltham, MA). After setting the proper protein concentration, the samples were mixed with loading buffer (containing 10% 2-mercaptoethanol) at a ratio of 3:1 and heated for 10 min at 95 °C. Equal amounts of the protein (45 μg/lane) were loaded on Any kD precast polyacrylamide gels (Criterion, TGX Stain-Free gel, Bio-Rad, Hercules, CA) and subjected to electrophoresis (170 V, 60 min). Separated proteins were transferred to the polyvinylidene difluoride (PVDF) membrane (Bio-Rad, Hercules, CA) and were blocked in a 5% solution of albumin in TBST. […] The proteins were detected using the electrochemiluminescence (ECL) method (Western Bright Quantum, Advansta Inc., San Jose, CA). The chemiluminescence of the membranes was imaged with the G-Box Imaging System (Syngene, Frederick, MD), and the protein expression was analyzed with Gene Tools software (Syngene, Frederick, MD) and expressed as relative to the total protein content in the membrane lane.
Changes in the relative expression of tested proteins were analyzed using one-way ANOVA with Tukey’s post hoc test.

SMILES: CC(=O)NC(C)C(=O)N1CCN(c2cccc(OC(F)(F)F)c2)CC1 (stereo not drawn) [Compound 28, N-(1-oxo-1-(4-(3-(Trifluoromethoxy)phenyl)piperazin-1-yl)propan-2-yl)acetamide]
- ED50 (mice): 27.5 mg/kg
- mBDNF expression in the cortex (mature BDNF (mBDNF)): decreased the expression of mBDNF
- mBDNF expression in the hippocampus (mature BDNF (mBDNF)): not in the hippocampus
